The values below come from US20070254930A1, “Oral Preparation Having Improved Bioavailability” (DONG WHA PHARM. IND. CO., LTD., priority 2004, published 2007).

Data set [1] can be described thus: pH-dependent water solubility. The data set is classed as physicochemical. The settings on record: pH about pH 5 or more.
A short description of data set [2]: Gelation experiment: viscosity of aqueous solutions. The data set is classed as physicochemical. The settings on record: for Viscosity: Brookfield DV-II+, 10° C. ± 0.3° C., spindle S 51. The protocol: The following test was carried out to evaluate the degree of gelation depending on the concentration of 2 methanesulfonic acid salt of the compound of Chemical Formula 1 according to the present invention.
200 mg of 2 methanesulfonic acid salt of the compound of Chemical Formula 1 was dissolved in 10 mL of water (20 mg/mL). The solution was diluted with water to give 20, 10, 5, and 2.5 mg/mL. Viscosity of these diluted solutions was measured according to the following test conditions described in Table 1, and also the results for the test are shown in Table 1.

Regarding `Cc1nc(-c2ccc(OCCCCCOc3ccc(C(=N)NO)cc3)cc2)c(C(C)C)s1` [compound of Chemical Formula 1, N-hydroxy-4-{5-[4-(5-isopropyl-2-methyl-1,3-thiazol-4-yl)phenoxy]pentoxy}-benzamidine], in data set [1], the “solubility in aqueous condition (in words)” value is on record as “practically insoluble”.

Turning to `CS(=O)(=O)O.CS(=O)(=O)O.Cc1nc(-c2ccc(OCCCCCOc3ccc(C(=N)NO)cc3)cc2)c(C(C)C)s1` [N-hydroxy-4-{5-[4-(5-isopropyl-2-methyl-1,3-thiazol-4-yl)phenoxy]pentoxy}-benzamidine 2 methanesulfonic acid salt], the Viscosity in data set [2] (2.5 mg/ml in water) amounted to 6.34 cP; in data set [2] (5 mg/ml in water) it was 11.9 cP; in data set [2] (10 mg/ml in water), 20.0 cP; in data set [2] (20 mg/ml in water) it was 78.9 cP. The “gelation property in aqueous solution (in words)” value in data set [2] (aqueous solution) was “high gelation property”.
